Test results from patent publication US20250243174A1, “ANTITUMORAL COMPOUNDS” (PHARMA MAR, S.A., priority 2021, published 2025).

How the values were obtained:
H460 xenografts = test: Comparative Example, in vivo H460 xenograft (PM050489); parameters: species or system mice; conditions: 0.08 mg/kg iv
Description: H460 cells were maintained in vitro at 37° C. with 5% CO2 in Dulbecco's Modified Eagle's Medium (Sigma-Aldrich, Co). Culture cells were passaged every 3 to 5 days upon reaching confluence. Each animal was subcutaneously implanted (on the right flank using 26G needle and a 1 cc syringe) at 4-6 weeks of age with 5×10^6 H460 cells suspended in 0.05 mL of a solution consisting of 50% Matrigel (Corning Incorporated Life Sciences) and 50% medium without serum or antibiotics.
Antitumor activity of PM050489 was evaluated in one human tumor model, NSCLC (H460) xenografted in immunodepressed mice. All treatments were intravenously administered at their MTD.
When tumors reached ca. 150-200 mm^3, tumor bearing animals (N=10/group) were randomly allocated into the following treatment groups: • PM050489 (0.08 mg/kg) • Placebo
Treatments were intravenously administered once per week for 2 consecutive weeks (days 0 and 7).
Tumor dimensions and body weights were recorded 3 times per week starting from the first day of treatment (Day 0). Treatments producing >20% lethality and/or 20% net body weight loss were considered toxic. Tumor volume was calculated using the equation (a·b^2)/2, where a and b were the longest and shortest diameters, respectively. Animals were euthanized when their tumors reached ca. 2,000 mm^3 and/or severe necrosis was seen. Median, mean and SD were calculated for tumor volume on each measurement day.
Antitumor effect was calculated by using ΔT/ΔC (%) and tumor growth delay (TGD). ΔT/ΔC was defined as a percentage of the change in tumor volume for each treated (T) and placebo (C) group. ΔT/ΔC was calculated immediately before the 2nd dose and on the 4th week of the study. TGD was expressed as a percentage by which the treated group volume was delayed and calculated by applying [(Dt−Dc)/Dc]100, where […] were the median times in days for treated and control groups in attaining a specified volume, fixed as 1,000 mm^3.
Treatment tolerability was assessed by monitoring body weight evolution, clinical signs as well as evidences of local damage in the injection site.

[1] = MTMD (Maximum Tolerated Multiple Dose) determination; format: in vivo; conditions: iv, Q7dx3; female athymic nude mice
Description: (§1) Female Athymic Nude-Fox1 nu/nu mice (Envigo) were utilized for all experiments. Animals (N=10/cage) were housed in individually ventilated cages (Sealsafe Plus®, Techniplast S.P.A.), on a 12-hour light-dark cycle at 21-23° C. and 40-60% humidity. Mice were allowed free access to irradiated standard rodent diet (Tecklad 2914C) and sterilized water. Animals were acclimated for five days prior to being individually tattoo-identified. Animal protocols were reviewed and approved according to the regional Institutional Animal Care and Use Committees.
(§2) Mice were randomly allocated into experimental groups and intravenously administered, once for the MTD (Maximum Tolerated Dose) determination or one administration a week during three consecutive weeks, for the MTMD (Maximum Tolerated Multiple Dose) determination study. The animals were administered with white formulation or with compound dissolved in the experimental formulation at different concentrations. The volume administered was always 10 mL/kg. Once administered, animals were monitored for clinical signs of systemic toxicity, changes in body weight and mortality up to 14 days after the administration.

[2] = MTD (Maximum Tolerated Dose) determination; conditions: Athymic Nude-Fox1 nu/nu, mouse, in vivo; iv, single dose; female athymic nude mice
Description: as §1, §2

HT29 = test: SRB colorimetric cytotoxicity assay, HT29; format: cell-based; conditions: Homo sapiens, HT-29, 72 h, read-out: GI50 (M) HT29
Excerpt: (§3) The aim of this assay is to evaluate the in vitro cytostatic (ability to delay or arrest tumor cell growth) or cytotoxic (ability to kill tumor cells) activity of the samples being tested.
(§4) A colorimetric assay, using sulforhodamine B (SRB) reaction has been adapted to provide a quantitative measurement of cell growth and viability (using the technique developed by Skehan et al., J. Natl. Cancer Inst. 1990 and following the protocol detailed in V. Vichai and K. Kirtikara (2006) Nature Protoc. 1, 1112-1116.)
(§5) This form of assay employs 96-well cell culture microplates. All the cell lines used in this study were obtained from the American Type Culture Collection (ATCC), unless otherwise indicated, and derive from different types of human cancer.
(§6) Cells were maintained in Dulbecco's Modified Eagle Medium (DMEM) (for A549, HT-29 and MDA-MB-231) or RPMI (for PSN-1) supplemented with 10% Fetal Bovine Serum (FBS), 2 mM L-glutamine, 100 U/mL penicillin and 100 U/mL streptomycin at 37° C., 5% CO2 and 98% humidity. For the experiments, cells were harvested from subconfluent cultures using trypsinization and resuspended in fresh medium before counting and plating.
(§7) Cells were seeded in 96 well microtiter plates, at 5×10^3 cells per well in aliquots of 150 μL, and allowed to attach to the plate surface for 18 hours (overnight) in drug free medium. After that, one control (untreated) plate of each cell line was fixed (as described below) and used for time zero reference value. Culture plates were then treated with test compounds (50 μL aliquots of 4× concentrated compound stock solutions made in complete culture medium) using ten serial dilutions (concentrations ranging from […]) and triplicate cultures (final concentration of DMSO being 1%). After 72 hours treatment, the antitumor effect was measured by using the SRB methodology: Briefly, cells were washed twice with PBS, fixed for 15 min in 1% glutaraldehyde solution at room temperature, rinsed twice in PBS, and stained in 0.4% SRB solution for 30 min at room temperature. Cells were then rinsed several times with 1% acetic acid solution and air-dried at room temperature. SRB was then extracted in 10 mM trizma base solution and the absorbance measured in an automated spectrophotometric plate reader at 490 nm. Effects on cell growth and survival were estimated by applying the NCI algorithm (Boyd M R and Paull K D. Drug Dev. Res. 1995, 34, 91-104).
(§8) Using the mean±SD of triplicates, a dose-response curve was automatically generated using nonlinear regression analysis to a 4-parameter logistic curve. Three reference parameters were calculated (NCI algorithm) by automatic interpolation: GI50=compound concentration that produces […] cell growth inhibition, as compared to control cultures.

PSN-1 = test: SRB colorimetric cytotoxicity assay, PSN-1; format: cell-based; conditions: Homo sapiens, PSN1, 72 h, read-out: GI50 (M) PSN-1
Excerpt: as §3, §4, §5, §6, §7, §8

A549 = test: SRB colorimetric cytotoxicity assay, A549; format: cell-based; conditions: Homo sapiens, A549, 72 h, read-out: GI50 (M) A549
Excerpt: as §3, §4, §5, §6, §7, §8

MDA-MB-231 = test: SRB colorimetric cytotoxicity assay, MDA-MB-231; format: cell-based; conditions: Homo sapiens, MDA-MB-231, 72 h, read-out: GI50 (M) MDA-MB-231
Excerpt: as §3, §4, §5, §6, §7, §8

COC1=CC[C@@H]([C@@H](C)/C=C(C)/C=C\C=C/C(=O)N[C@H](C(=O)N/C=C\C[C@H](C/C=C(\C)Cl)OC(N)=O)C(C)(C)C)OC1=O [PM050489, reference compound]
treatment tolerability (H460 xenografts): prematurely finished because of severe necrosis in the tumor masses and/or decreases in body weight values | ΔT/ΔC (%) Day 7 (H460 xenografts; days 0 and 7, Day 7): 103.5% | TGD (%) (H460 xenografts; tumor growth delay, target volume 1,000 mm^3): 40.0% | MTMD [1]: 0.075 mg/kg | MTD at 14 days [2]: 0.075 mg/kg | GI50 (HT29): 3.91e-11 M | GI50 (PSN-1): 1.9e-10 M | GI50 (A549): 8.59e-11 M | GI50 (MDA-MB-231): 1.37e-10 M
